Measurements as given in US12528821B2, “pH-dependent composition matters useful for study and diagnosis of alzheimer's disease” (Purdue Research Foundation, priority 2019, dated 2026).

Key:
[1] = pH-sensitivity: fluorescence intensity at various pH conditions; format: physicochemical
Protocol: The cell culture medium was treated with dilute HCl and NaOH solutions to obtain different solutions with pH of 1.0 to 9.0 for the assay. […] Different dilutions for each pH condition was prepared at concentrations of 0.5, 1.0, 2.0, and 5.0 μM in a 96-well plate.

primary mouse microglia = test: Phagocytic uptake by primary microglia ex vivo (confocal, flow cytometry); format: cell-based
[2] = test system: microglia and astrocytes in the cerebral cortex; test: In vivo two-photon imaging of the barrel cortex through a cranial window after topical application; set-up: species or system mouse
[3] = test system: microglia and astrocytes in rat hippocampal tissue sections; test: Phagocytosis assay in rat hippocampal tissue slices (in situ); settings: IBA1+ and GFAP+ staining
HMC3, N9, and BV2 cells = test: Confocal imaging of intracellular acidic organelles (LysoTracker) in fixed phagocytic microglial cells; format: cell-based, human, mouse; settings: 5.0 μM, 2-hour time point
From the text: To visualize the localization of the hAβ^pH within the microglial cell cytoplasm, the acidic intracellular compartments were labeled with LysoTracker™ DND-99 that stains the lysosomal organelles of the cells. […] It has been recently shown that microglia in vitro recognize and phagocytose Aβ peptides through scavenger receptors,^8 Toll-Like Receptor 2 (TLR2),^17 Cluster of Differentiation 14 (CD14),^18 and Triggering Receptors Expressed on Myeloid Cells 2 (TREM2).^19 Thus, our hAβ^pH reporter serves as a valuable chemical tool in delineating the role of several receptor proteins involved in the Aβ uptake of live and fixed microglial cells using cell staining reagents and by using specific antibodies such as anti-CD14, anti-TREM2, etc. Additionally, the role of inflammation, including the effects of inflammatory cytokines, such as IL-la and TNF-α, on Aβ clearance is not resolved. Thus, our hAβ^pH will be a valuable for studying hAβ^pH phagocytosis under the influence of inflammatory cytokines or small molecule inhibitors.
LysoTracker® Red DND-99 was used for labeling the intracellular organelles of the cells to observe localization of hAβ^pH sensors inside the cells after phagocytosis. […] Fluorescence images of phagocytic microglial cells were captured using 40× and 60× objectives on the Nikon AR-1 MP confocal laser microscope. […]

BV2 microglial cells [4] = test: Flow cytometry analysis of BV-2 microglia phagocytosis; format: cell-based, mouse; settings: 0.5 and 1.0 μM for 1 hour
Protocol: BV2 microglial cells were seeded at a density of 250 k cells/well in a 6-well plate for around 14 hr overnight. […] After 2 hours, the plate was brought to the hood, placed on ice to stop phagocytosis, and cell culture medium containing hAβ^pH was aspirated. The cells were washed once with cold PBS. Next, the cells were treated with ice cold PBS with 2 mM EDTA for 2 mins on ice to initiate detachment of the cells from the wells. The cells were fully detached from the wells with very gentle pipetting and transferred into falcon tubes. The cells were centrifuged once at 1400 RPM for 3 mins. The PBS/EDTA supernatant was aspirated out and the cell pellets were re-suspended in FACS buffer (PBS, 25 mM HEPES, 2 mM EDTA, and 2% FBS). Five minutes before analysis of each sample tube, Propidium Iodide (PI) was added to the sample (40 ng/1 mL cell suspension) for staining of live/dead cells. […] The filed were then analyzed on FlowJo V10 software. Gating strategy is indicated in FIG. 4 on the main manuscript.

BV2 microglial cells [5] = test: Phagocytosis assay with live cells (IncuCyte live-cell imaging); format: cell-based, mouse
Protocol: Cells were seeded at 5000 cells per well (200 μL per well) in a 96-well flat bottom plate (Falcon) for approximately 16 hours (overnight). […] Two technical replicates were used for each treatment concentration. The plates were immediately placed in the IncuCyte® S3 Live-Cell Analysis System (Essen BioScience) and four images per well were captured at 30-minute time intervals for 24 hours. The fluorescence intensity, cell confluence, and the integrated fluorescence intensity data was obtained and analyzed using the GraphPad Prism® software.
Flow Cytometry Analysis of BV-2 Microglia Phagocytosis

[6] = test system: retinal IBA1+ microglia and GFAP+ astrocytes; test: Subretinal injection, in vivo uptake by retinal microglia and astrocytes; settings: rat
[7] = test system: HMC3, BV2, and N9 microglial cells; test: Confocal imaging of actin filaments and nuclei in paraformaldehyde-fixed phagocytic microglial cells; format: cell-based, human, mouse; settings: 5.0 μM for 2 hours, fixed with 4% paraformaldehyde
Protocol: Fixation of cells and using target protein markers along with hAβ^pH can inform us about the molecular mechanisms involved in microglial phagocytosis with confocal microscopy. To confirm that the hAβ^pH reporter can maintain its fluorescence in fixed cells, HMC3, BV2, and N9 microglial cells were fixed with common cell staining reagents. The cells were treated with 5.0 μM of hAβ^pH for 2 hours and fixed with 4% paraformaldehyde followed by the addition of the phalloidin dye to visualize cellular integrity via the staining of the F-actin filaments (FIG. 5).
For labeling the cells with Phalloidin and DAPI, 20,000 cells/250 μL were plated in 14 mm microwells of the 35 mm glass bottom dishes (MatTek #P35G-1.5-14-C) and kept overnight. The cells were treated with 5.0 μM hAβ^pH for 2 hours on the next day. Then the medium was aspirated, and cells were fixed with 4% paraformaldehyde for 20 mins, and then gently washed once with PBS. Phalloidin-iFluor 555 reagent was diluted at a concentration of 1 μL/mL in PBS and added to the fixed cells for 10 minutes for staining the actin filaments. To label the nuclei, DAPI was diluted at a concentration of 1 μL/mL. […] Fluorescence images of phagocytic microglial cells were captured using 40× and 60× objectives on the Nikon AR-1 MP confocal laser microscope. […]

[8] = Atomic Force Microscopy analysis of aggregation; format: physicochemical; settings: compared with non-conjugated Aβ1-42
Protocol: AFM sample preparation: The manufacturer's protocol was followed for sample preparation, image acquiring and analysis.
1 mM Aβ solution was prepared by adding HFIP directly to the vial (0.5 mg Aβ or hAβ^pH or recombinant Aβ(M1-42) in 93.35 μL HFIP). The peptide should be completely dissolved. The solution was incubated at room temperature (RT) for at least 30 min. HFIP was allowed to evaporate in the open tubes overnight in the fume hood or using Argon/Nitrogen gas and then dry down under high vacuum for 1 h without heating to remove any remaining traces of HFIP and moisture. The resulting peptide thin clear film formed at the bottom of the tubes. The tubes containing dried peptides were stored at −20° C. until further use.
Prior to use, tube containing peptide film was allowed to come to RT. Then, 5 mM Aβ DMSO stock was prepared by adding 20 μL fresh dry DMSO to 0.45 mg. Pipette thoroughly, scraping down the sides of the tube near the bottom to ensure complete resuspension of peptide film. Vortex well (˜30 sec) and pulse in a microcentrifuge to collect solution at the bottom of the tube. Sonicate 5 mM Aβ DMSO solution for 10 min. Use this preparation as the starting material for unaggregated Aβ and oligomeric Aβ. For oligomer formation, samples were incubated at 4° C. for 24 hr.
Sample preparation was done with proper sterile technique with sterile media and MilliQ-water. […]

[9] = test system: cortical IBA1+ microglia and GFAP+ astrocytes; test: Stereotaxic microinjection in the somatosensory cortex, staining of fixed tissue sections; format: in vivo, mouse
N9 microglial cells = test: Phagocytosis assay with live cells (IncuCyte live-cell imaging); format: cell-based, mouse
Protocol: (§1) To visualize the phagocytosis of hAβ^pH in live microglial cells, immortalized human microglial clone 3 (HMC3) cells and mouse BV2 and N9 microglial cells were treated with 0.1-5.0 μM doses of hAβ^pH and live-cell images were acquired every 30 minutes for 24 hours on the IncuCyte™ ZOOM Live Content Imaging system (FIGS. 3A-3B). The green channel on the IncuCyte™ ZOOM system allows for excitation and emission wavelengths of 460/524 nm and thus the hAβ^pH reporter was optimal for use on the instrument.
(§2) Cells were seeded at 5000 cells per well (200 μL per well) in a 96-well flat bottom plate (Falcon) for approximately 16 hours (overnight). The lyophilized hAβ^pH conjugate was dissolved in the culture medium for each cell type and filtered using 0.22 μm syringe filter. The adherent cells (BV2, N9, HMC3) were treated with a final concentration of hAβ^pH at 0, 0.1, 0.5, 1.0, 2.0, and 5.0 μM by replacing one-half of the culture medium (100 μL) with 2× concentration. Two technical replicates were used for each treatment concentration. The plates were immediately placed in the IncuCyte® S3 Live-Cell Analysis System (Essen BioScience) and four images per well were captured at 30-minute time intervals for 24 hours. The fluorescence intensity, cell confluence, and the integrated fluorescence intensity data was obtained and analyzed using the GraphPad Prism® software. The total hAβ^pH phagocytosis per concentration was calculated as:
[formula] wherein, Total Integrated Intensity is defined as the total sum of hAβ^pH's fluorescent intensity in the image and Relative Total Integrated Intensity is defined as Total Integrated Intensity (t)—Total Integrated Intensity (t=0) for each concentration. Flow Cytometry Analysis of BV-2 Microglia Phagocytosis

HMC3 cells = test: as above; format: cell-based, human
Protocol: as §1
as §2, with “The plates were immediately placed in the IncuCyte® S3 Live-Cell Analysis System (Essen BioScience) and four images per well were captured at 30-minute time intervals for 24 hours.” left out, “as: […]” for “as:”

[10] = test system: primary immunopanned rat astrocytes; test: Uptake by primary immunopanned astrocytes in serum-free conditions; format: cell-based; settings: fixed, GFAP stained
[11] = P7 mouse, periventricular white matter, 72 h

Q: For “RODO-conjugated hAβ^pH: conjugate of the Aβ1-42 peptide with pHrodo-Red (RODO) fluorophore”, which “pH range of increased fluorescence” value ([1]; 0.5, 1.0, 2.0, and 5.0 μM, FIG. 1C) is on record?
A: Its value is 1.0-7.0.

Q: Which results are given for “hAβ^pH: pH-dependent fluorescent conjugate of human Aβ1-42 peptide linked to amine-reactive Protonex Green 500, SE (PTXG) fluorophore”?
A: green fluorescence in live (ZV-) cells (flow cytometry) (primary mouse microglia; 0.5, 1.0, and 2.0 μM for 1 hour): green fluorescence is measured; phagocytosis ex vivo (confocal, LysoTracker Red) (primary mouse microglia; defined, reduced-serum media, fixed cells): phagocytose Aβ^pH ex vivo; fluorescence in cell somata after topical application ([2]; mouse barrel cortex, two-photon imaging): fluorescence increases in cell somata; colocalization with IBA1, CD68, and GFAP ([2]; perfusion-fixed 1.5 to 3 hours after imaging, cortical slices): most Aβ^pH is taken up by microglia and astrocytes in vivo; phagocytosis in situ [3]: phagocytosed by both microglia and astrocytes in situ; co-localization with LysoTracker dye (HMC3, N9, and BV2 cells): confirmed the presence of hAβ^pH within the acidic phagosomes; green fluorescence in live (PI-) cells (flow cytometry) (BV2 microglial cells [4]): green fluorescence is measured; intracellular fluorescence during the 18-hour time period (BV2 microglial cells [5]; 5.0 μM dose): increased intracellular fluorescence; intracellular fluorescence (phagocytosis) over time (BV2 microglial cells [5]; 1.0 and 2.0 μM doses): gradual increase in intracellular fluorescence; fluorescence in retinal astrocytes (quantification) ([6]; 3 time points, FIG. 11G): No fluorescence was detected; phagocytosis by GFAP+ retinal astrocytes in vivo ([6]; FIG. 11F): phagocytose Aβ^pH in vivo; fluorescence retained in fixed cells (confocal, phalloidin) [7]: showed green fluorescence; ability to aggregate (AFM) [8]: aggregate similar to the non-conjugated Aβ; phagocytic uptake at the 24 h timepoint ([9]; P7 mouse, periventricular white matter, 24 h): phagocytic uptake of Aβ^pH by IBA1^+ microglia and GFAP^+ astrocytes; fluorescence in GFAP+ astrocytes at 72 h [9, 11]: do not show any green fluorescence; fluorescence in IBA1+ microglia at 72 h [9, 11]: bright green fluorescence; fluorescence within microglia vs astrocytes ([9]; pia and white matter regions): more Aβ^pH uptake by microglia compared to astrocytes; intracellular fluorescence beyond 18 hours (N9 microglial cells; 5.0 μM): began to decrease; time of peak intracellular green fluorescence (N9 microglial cells; 5.0 μM): 12 to 18 h; intracellular fluorescence (phagocytosis) over time (N9 microglial cells; 1.0 and 2.0 μM doses): gradual increase in intracellular fluorescence; fluorescence intensity at the physiological pH of 7.4 ([1]; pH 7.4): did not show an increased fluorescence intensity; phagocytosis (HMC3 cells; 5.0 μM): increased phagocytosis; time period of increased intracellular fluorescence (HMC3 cells; 1.0 and 2.0 μM doses, followed by gradual decrease): 1 to 8 h; phagocytosis by astrocytes [10]: also phagocytose Aβ^pH
